Read-outs that look alike come from different tables or passages of the source.
Legend:
leukotriene B4 receptors = leukotriene B4 receptors (Cavia porcellus, UniProt H0VYV8); test: biochemical; assay type: binding, guinea-pig; conditions: Table XIX; guinea-pig spleen membranes, tritium-labelled LTB4; read-out: IC50 Binding (Cheng)
[1] = test system: guinea-pig pulmonary parenchyma; test: L. Parenchyma: guinea-pig pulmonary parenchyma contraction antagonism induced by LTB4 (Sirois); assay type: cell-based; conditions: Cavia porcellus, read-out: IC50 L. Parenchyma
Description: Further, compounds of this invention are shown to be leukotriene B4 antagonists in the technique of guinea-pig pulmonary parenchyma contraction antagonism induced by LTB4 described by P. Sirois et al., Pharmacology, 31, 225-236 (1985). In this technique, products are active at concentrations of between about 1 to about 10,000 nM.

[2] = Table XIX, guinea-pig pulmonary parenchyma contraction induced by LTB4

Chain of leukotriene B4 receptors (H0VYV8 1-348): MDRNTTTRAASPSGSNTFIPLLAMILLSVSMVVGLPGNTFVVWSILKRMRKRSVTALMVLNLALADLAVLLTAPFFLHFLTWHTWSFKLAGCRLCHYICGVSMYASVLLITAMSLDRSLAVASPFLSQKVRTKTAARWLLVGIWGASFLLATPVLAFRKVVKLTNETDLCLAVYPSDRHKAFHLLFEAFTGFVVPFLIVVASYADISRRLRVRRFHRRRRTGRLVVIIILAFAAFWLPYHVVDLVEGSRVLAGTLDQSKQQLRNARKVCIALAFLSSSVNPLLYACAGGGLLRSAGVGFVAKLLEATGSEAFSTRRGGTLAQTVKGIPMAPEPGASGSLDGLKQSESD

SMILES	IC50 (leukotriene B4 receptors) [nM]	IC50 [1, 2] [nM]	IC50 [1] [nM]
O=C(O)CCCCCOc1cc(-c2ccc3c(c2)OCO3)cc(-c2ccccc2)n1 [6-{[4-(3,4-methylenedioxyphenyl)-6-phenyl-2-pyridyl]oxy}hexanoic acid]	1	5	–
CC(CCCCOc1cc(-c2ccc(F)cc2)cc(-c2ccccc2)n1)C(=O)O (stereo not drawn) [2-methyl-6-{[4-(4-fluorophenyl)-6-phenyl-2-pyridyl]oxy}hexanoic acid]	1.7	60	–
COc1ccc(-c2cc(OCCCCCC(=O)O)nc(-c3ccccc3)c2)cc1 [6-{[4-(4-methoxyphenyl)-6-phenyl-2-pyridyl]oxy}hexanoic acid]	15	1100	–
O=C(O)CCCCCOc1cc(-c2ccccc2)cc(-c2cccs2)n1 [6-{[4-phenyl-6-(2-thienyl)-2-pyridyl]oxy}hexanoic acid]	50	300	–
NC(=O)CCCCCOc1cc(-c2ccccc2)cc(-c2ccccc2)n1 [6-[(4,6-diphenyl-2-pyridyl)oxy]hexanamide]	160	> 1000	–
O=C(O)CCCCCOc1cc(-c2ccccc2)cc(-c2ccccc2)n1 [6-[(4,6-diphenyl-2-pyridyl)oxy]hexanoic acid]	3	300	–
COC(=O)CCCCCOc1cc(-c2ccccc2)cc(-c2ccccc2)n1 [methyl 6-[(4,6-diphenyl-2-pyridyl)oxy]hexanoate]	40	> 10000	–
CC(C)(CCCCOc1nc(-c2ccccc2)cc(-c2ccccc2)n1)C(=O)O [6-[(4,6-diphenyl-2-pyrimidyl)oxy]-2,2-dimethylhexanoic acid]	10	1000	–
O=C(O)CCCCCOc1cc(-c2ccccc2)cc(-c2ccccc2F)n1 [6-{[6-(2-fluorophenyl)-4-phenyl-2-pyridyl]oxy}hexanoic acid]	3	60	–
CC(CCCCOc1cc(-c2ccccc2)cc(-c2ccccc2F)n1)C(=O)O (stereo not drawn) [2-methyl-6-{[6-(2-fluorophenyl)-4-phenyl-2-pyridyl]oxy}hexanoic acid]	4	6	–
CCC(CCCCOc1cc(-c2ccccc2)cc(-c2ccccc2)n1)C(=O)O (stereo not drawn) [2-ethyl-6-[(4,6-diphenyl-2-pyridyl)oxy]hexanoic acid]	3	70	–
O=C(O)CCCCCOc1cc(-c2ccccc2)cc(-c2ccccc2Cl)n1	1.8	–	200
CC(C)(C)c1cc(-c2ccccc2)cc(OCCCCCC(=O)O)n1 [6-[(6-ter-butyl-5-phenyl-2-pyridyl)oxy]hexanoic acid]	300	2000	–
O=C(O)CCCCCOc1cc(-c2ccccc2)cc(-c2ccsc2)n1 [6-{[4-phenyl-6-(3-thienyl)-2-pyridyl]oxy}hexanoic acid]	10	1000	–
O=C(O)CCCCCOc1cc(-c2cccc(F)c2)cc(-c2ccccc2)n1 [6-{[4-(3-fluorophenyl)-6-phenyl-2-pyridyl]oxy}hexanoic acid]	3	200	–
COc1ccc(-c2cc(OCCCCCC(=O)O)nc(-c3ccc(Cl)cc3)c2)cc1 [6-{[6-(4-chlorophenyl)-4-(4-methoxyphenyl)-2-pyridyl]oxy}hexanoic acid]	1200	> 10000	–
CC(CCCCOc1cc(-c2cccc(Cl)c2)cc(-c2ccccc2)n1)C(=O)O (stereo not drawn) [2-methyl-6-{[4-(3-chlorophenyl)-6-phenyl-2-pyridyl]oxy}hexanoic acid]	–	1000	–
CNc1ccc(-c2cc(OCCCCCC(=O)O)nc(-c3ccccc3)c2)cc1 [6-{[4-(4-methylaminophenyl)-6-phenyl-2-pyridyl]oxy}hexanoic acid]	–	150	–

The remaining molecules from weak to strong by IC50 [1, 2], led by results:

IC50 (leukotriene B4 receptors) [nM]	IC50 [1, 2] [nM]	SMILES	IC50 [1] [nM]
50	2000	O=C(O)CCCCOc1cc(-c2ccccc2)cc(-c2ccccc2)n1 [5-[(4,6-diphenyl-2-pyridyl)oxy]pentanoic acid]	–
30	1700	O=C(O)CCCCCOc1cc(-c2ccccc2)cc(-c2ccc(F)cc2)n1 [6-{[6-(4-fluorophenyl)-4-phenyl-2-pyridyl]oxy}hexanoic acid]	–
25	1300	O=C(O)CCCCCCOc1cc(-c2ccccc2)cc(-c2ccccc2)n1 [7-[(4,6-diphenyl-2-pyridyl)oxy]heptanoic acid]	–
13	1000	CC(C)(CCCCOc1cc(-c2cccc(Cl)c2)cc(-c2ccccc2)n1)C(=O)O [2,2-dimethyl-6-{[4-(3-chlorophenyl)-6-phenyl-2-pyridyl]oxy}hexanoic acid]	–
40	1000	CC(C)(CCCCOc1cc(-c2ccccc2)cc(C(C)(C)C)n1)C(=O)O [6-[(6-ter-butyl-4-phenyl-2-pyridyl)oxy]-2,2-dimethylhexanoic acid]	–
10	1000	O=C(O)CCCCCOc1cc(-c2ccc(F)cc2)cc(-c2ccccc2F)n1 [6-{[4-(4-fluorophenyl)-6-(2-fluorophenyl)-2-pyridyl]oxy}hexanoic acid]	–
15	1000	CC(C)(CCCCOc1cc(-c2ccccc2)cc(-c2cccs2)n1)C(=O)O [2,2-dimethyl-6-{[4-phenyl-6-(2-thienyl)-2-pyridyl]oxy}hexanoic acid]	–
3	800	O=C(O)CCCCCOc1cc(-c2ccc(F)cc2)cc(-c2ccccc2)n1 [6-{[4-(4-fluorophenyl)-6-phenyl-2-pyridyl]oxy}hexanoic acid]	–
7	300	CC(C)(CCCCOc1cc(-c2ccc(F)cc2)cc(-c2ccccc2)n1)C(=O)O [2,2-dimethyl-6-{[4-(4-fluorophenyl)-6-phenyl-2-pyridyl]oxy}hexanoic acid]	–
8	200	COc1cccc(-c2cc(OCCCCCC(=O)O)nc(-c3ccccc3)c2)c1 [6-{[4-(3-methoxyphenyl)-6-phenyl-2-pyridyl]oxy}hexanoic acid]	–
50	170	COc1ccc(-c2cc(OCCCCC(C)(C)C(=O)O)nc(-c3ccccc3)c2)cc1 [2,2-dimethyl-6-{[4-(4-methoxyphenyl)-6-phenyl-2-pyridyl]oxy}hexanoic acid]	–
–	140	CC(C)(CCCCOc1cc(-c2ccc3c(c2)OCO3)cc(-c2ccccc2)n1)C(=O)O [2,2-dimethyl-6-{[4-(3,4-methylenedioxyphenyl)-6-phenyl-2-pyridyl]oxy}hexanoic acid]	–
15	100	Cc1ccc(-c2cc(OCCCCCC(=O)O)nc(-c3ccccc3)c2)cc1 [6-{[4-(4-methylphenyl)-6-phenyl-2-pyridyl]oxy}hexanoic acid]	–
5	80	CC(C)(CCCCOc1cc(-c2ccccc2)cc(-c2ccccc2F)n1)C(=O)O [2,2-dimethyl-6-{[6-(2-fluorophenyl)-4-phenyl-2-pyridyl]oxy}hexanoic acid]	–
2	30	COc1cccc(-c2cc(OCCCCC(C)(C)C(=O)O)nc(-c3ccccc3)c2)c1 [2,2-dimethyl-6-{[4-(3-methoxyphenyl)-6-phenyl-2-pyridyl]oxy}hexanoic acid]	–
7	20	CC(C)(CCCCOc1cc(-c2ccccc2)cc(-c2ccccc2)n1)c1nnn[nH]1 [5-{1,1-dimethyl-5-[(4,6-diphenyl-2-pyridyl)oxy]pentyl}-[1H]-tetrazole]	–
–	20	COc1cccc(-c2cc(OCCCCC(C)C(=O)O)nc(-c3ccccc3)c2)c1 (stereo not drawn) [2-methyl-6-{[4-(3-methoxyphenyl)-6-phenyl-2-pyridyl]oxy}hexanoic acid]	–

From patent publication US5366982A (priority 1990, dated 1994)
